Experimental data from a melting point compilation (Tetko et al.; mined from patent text by program, amines drawn as free bases though some values may be those of a salt).

| melting point | SMILES |
| --- | --- |
| 192 to 194 °C | Cc1cc(N)nc(-c2ccncc2)n1 |
| 189 to 193 °C | O=c1oc(-c2ccc(F)cc2)nc2cccc(F)c12 |
| 65 °C | CCc1nn(-c2ccc(F)cc2)c2c1C(C)N(C)C2=O (stereo not given) |
| 166 to 169 °C | CCOC(=O)c1c(SC)nc(-c2ccc(F)cc2)n(-c2ccc(SC)cc2)c1=O |
| 174 to 175 °C | COc1ccc(C(=O)Nc2ccc(N3CCCC3)cc2C(C)=O)cc1 |
| 98 to 100 °C | CC(=O)NC[C@H]1CN(c2ccc(N3CCC(O)(CO)CC3)c(F)c2)C(=O)O1 |
| 118 to 120 °C | Cn1c(C(=O)c2ccc(F)cc2)cc2cc(OCc3ccccc3)ccc21 |
| 88 to 90 °C | NCC1Cc2cc(F)cc(-c3cccnc3)c2O1 (stereo not given) |
| 134 to 136 °C | Cc1cn(C2CC2)c(=O)nc1NS(=O)(=O)c1ccc(N)cc1 |
| 56 °C | CCN(CC)C(=O)c1cc(-c2ccccc2)c2occc2c1 |
| 84 to 85 °C | CCOC(=O)c1ccc2nccc(Cl)c2c1 |
| 182 to 184 °C | Cc1c(C(=O)O)ccc(S(C)(=O)=O)c1C1=NOCC1 |
| 190 to 191 °C | Cc1cc(O)cc(C)c1N |
| 150 to 151 °C | Cc1ccccc1-c1nc(-c2ccc(Cl)cc2)n[nH]1 |
| 115 to 117 °C | C=CCOc1cccc2c1C(=O)OC2=O |
| 64 to 65 °C | Cc1noc(C)c1C(=O)Nc1ccc(-n2nc(C(F)(F)F)cc2C(F)(F)F)c(Cl)c1 |

| melting point | SMILES |
| --- | --- |
| 242 to 243 °C | COc1cc2c(cc1OC)C(=O)C(=Cc1cc(C)c([N+](=O)[O-])c(C)c1)C2 |
| 207 to 209 °C | O=C(O)C1=C(c2cc(-c3ccccc3)[nH]n2)CCCC1 |
| 114 to 117 °C | CC(=O)c1ccc(NS(C)(=O)=O)c(C(=O)c2ccc(F)cc2F)c1 |
| 120 to 122 °C | O=C1CC2CCc3ccc(Cl)cc3C2=NN1c1ccccc1 (stereo not given) |
| 256 to 258 °C | COc1cc2nc(N)nc(-c3cccc(O)c3)c2cc1OC |
| 101 °C | COc1ccc(C(O)C(=S)N(C)C)cc1 (stereo not given) |
| 68.5 to 70.5 °C | CC(C)Oc1cccc(-c2nc3ncccc3o2)c1 |
| 243 °C | O=c1[nH]c2cccnc2n1-c1ccc2c(c1)COC2 |
| 84 to 86 °C | CC1(C)Oc2ccc(C(=O)CCl)cc2S1 |
| 173 to 176 °C | Cc1cc(-c2cccc(Cl)c2)nn2cnnc12 |
| 116 to 118 °C | CN(C)C=C1CCc2ccn(Cc3ccccc3)c2C1=O |
| 164 to 170 °C | Cc1ccc(C(=O)O)c(F)c1C1=NC(C)(C(C)C)C(=O)N1 (stereo not given) |
| 120 to 122 °C | C[Si](C)(C)c1sc(C=O)cc1Oc1ccccc1 |
| 253 to 254 °C | Cc1cc2ccc(=O)oc2cc1O |
| 181 to 183 °C | Cc1nc2cnc3cc(Cl)ccc3c2s1 |
| 184 °C | COc1cc2ncc(C(=O)NCc3ccc(Cl)cc3)c(O)c2cc1OC |

More lines, now with the values behind:

| SMILES | melting point |
| --- | --- |
| Cc1nn(Cc2ccc(OCc3nc(-c4ccccc4)oc3C)cc2)c(C)c1CCC(=O)O | 170 to 171 °C |
| CC(=O)SCC(Cc1ccccc1)C(=O)Nc1cc(C(=O)O)cc(C(F)(F)F)c1 (stereo not given) | 62 to 67 °C |
| CSC(C)=NOC(=O)N(C)SN(C)C(=O)ON=C(C)C(C)=NOC(=O)N(C)SN(C)C(=O)ON=C(SC)C(=O)N(C)C | 87 to 110 °C |
| C=CCNC(=S)N1CCc2[nH]cnc2C1CC (stereo not given) | 205 °C |
| N#CCCNC(=O)c1n[nH]cc1NC(=O)c1cccs1 | 226 to 227 °C |
| Cc1cc(=O)c(C(=O)O)c(C)n1C1CC(C)(C)NC(C)(C)C1 | 174 °C |
| CCOCCCOc1ccc(-c2ccc3c(c2)C=C(C(=O)OC)CCN3C(=O)OC(C)(C)C)cc1 | 125 to 128 °C |
| N#CC(C#N)C1(C#N)CCSc2ccccc21 (stereo not given) | 136 to 137 °C |
| CC(C)(C)OC(=O)N1CCN(C(=O)C2C3CCC(O3)C2C(=O)O)CC1 (stereo not given) | 206 to 208 °C |
| CCCC1=C(C#N)C(c2ccccc2Br)c2c[nH]nc2N1 (stereo not given) | 237 °C |
| Oc1cccc(-c2ocnc2-c2onc(-c3ccccc3)c2-c2ccccc2)c1 | 199 to 200 °C |
| CC(C)(C)CCc1nn(-c2ccc(F)cc2F)c2c1C1CCC2C1 (stereo not given) | 54 to 57 °C |
| CC(C)(CC(O)(Cn1cc(Cl)c(=O)c2cnccc21)C(F)(F)F)c1cccc2c1OCC2 (stereo not given) | 158 to 160 °C |
| O=C(O)c1cc(-c2nccs2)[nH]c1C(CC1CCOCC1)c1ccc(S(=O)(=O)C2CC2)cc1 (stereo not given) | 153 to 155 °C |
| Cc1cc(C)n(-c2nc(Nc3ccc(I)cc3)c3ccccc3n2)n1 | 226 to 229 °C |
| CC(C)Cc1c2c(nn1C)c(N)nc1ccccc12 | 213 to 214 °C |
| Cc1ccc(-n2nc(C(C)(C)C)cc2NC(=O)NCc2ccccc2Oc2cc(N3CCOCC3)ncn2)cc1 | 128 °C |
| N#Cc1c(-c2ccc(Cl)c(Cl)c2)[nH]c(C(F)(F)F)c1Cl | 239 to 241 °C |
| CN(CC1CCN(c2ccc(OC(F)(F)F)cc2)CC1)c1ccc(OC[C@@]2(C)Cn3cc([N+](=O)[O-])nc3O2)cc1 | 172 to 175 °C |
| OCC1COC2(CCN(CCc3ccccc3)CC2)O1 (stereo not given) | 96 °C |
| COc1ccc(OC2COc3ccc(OCc4ccc5ccccc5n4)cc3C2O)cc1 (stereo not given) | 131 to 132 °C |
| CC(=O)N1CCN(c2ccc(Nc3nccc(-c4sc(N(C)c5cccnc5)nc4C)n3)cc2)CC1 | 205 to 206 °C |
| O=C1c2ccccc2C(=O)N1CCc1ccc(F)cc1 | 106 to 107 °C |

| SMILES | melting point |
| --- | --- |
| CC(=O)OCCOCc1nc2nccnc2c(=O)[nH]1 | 157 to 159 °C |
| CCCCc1ccc(NC(=O)CCc2ccccc2)c(=O)n1CC(=O)OC | 84 to 85 °C |
| Cn1c(CNCC2CCOC2)cc2cc(NC(=O)c3ccc(OCC4CCOC4)cc3)ccc21 (stereo not given) | 131 to 133 °C |
| CC12CC(CCCCCO)C3c4ccc(O)cc4CCC3C1CCC2O (stereo not given) | 152 °C |
| CCC(=O)C(CC)=NNc1ccccc1[N+](=O)[O-] | 96 to 97 °C |
| Cc1cccc(C)c1NC(=O)C(C)N1CCN(CCC2CCOc3ccccc32)CC1 (stereo not given) | 130 °C |
| CNC1(CC2CCCCC2)C(=O)N(S(=O)(=O)c2ccc([N+](=O)[O-])cc2OC)c2ccc(Cl)cc21 (stereo not given) | 207 °C |
| CCOc1ccc2c(S(=O)(=O)c3ccc(O)cc3)c(C(C)C)cn2c1 | 220 to 221 °C |
| CC(C)OC(=O)C1=C(COCCN2C(=O)c3ccccc3C2=O)Nc2c(C#N)cnn2C1c1cccc(F)c1F (stereo not given) | 176 to 177 °C |
| N#CCCN1CCc2c3n(c4ccccc24)C(=O)CCC31 (stereo not given) | 156 to 157 °C |
| O=C(Nc1cnccn1)Nc1cccc2c1C1C[C@@H](O)CCN1C2=O (stereo not given in full) | 250 °C |
| CC12CC(O)C3c4cc(O)ccc4CCC3C1CCC2O (stereo not given) | 229 to 232 °C |
| O=C1CC(Cc2ccccc2Cl)CN1 (stereo not given) | 87 to 89 °C |
| CS(=O)(=O)c1ccc(C(=O)c2cc(-c3ccncc3)c(N3CCOCC3)s2)cc1 | 128 °C |
| O=C(O)CCCCC(O)CCCl (single isomer, unassigned; (-)) | 29 to 30 °C |
| COc1ccc(CNc2n[nH]c3ncnc(Nc4cccc(Cl)c4)c23)c(OC)c1OC | 168 to 169 °C |
| CCOc1ccc(C2=NN(C3CCN(C(=O)N4CCOCC4)CC3)C(=O)[C@@H]3CC=CC[C@H]23)cc1OCC | 139 to 141 °C |
| C#Cc1ncn2c(C(F)(F)F)cc(-c3ccc(C(F)(F)F)cc3)nc12 | 163 °C |
| CCS(=O)(=O)CCC(=O)NNC(=O)N1Cc2ccccc2Oc2ccc(N)cc21 | 172 to 179 °C |
| COc1ccc([N+](=O)[O-])c(C=O)c1OC | 106 to 108 °C |
| Cc1oc(-c2ccccc2)nc1CCOc1ccc(CC(C)(C(=O)O)n2ccc(Br)c2)cc1 (stereo not given) | 158 to 159 °C |
| Nc1ncc2c(n1)-c1ccc(-c3ccccc3)cc1C(c1ccc(Cl)c(Cl)c1)C2 (stereo not given) | 186 to 187 °C |
| CC(=O)c1cc(CC(=O)O)cc2c1NC(C(F)(F)F)CC2 (stereo not given) | 173 to 174 °C |

| SMILES | melting point |
| --- | --- |
| CCOC(=O)/C(=C\Nc1ccc(OC)cc1)c1ccc(OC)cc1 | 90 to 91 °C |
| CCCCCCCCCCCCCCOc1ccc(OCc2ccccc2)c(C(=O)O)c1 | 73 to 74 °C |
| CCOCc1nc2c(N)nc3cc(OCCCCCCNC(=O)CCS)ccc3c2n1CC(C)(C)NS(C)(=O)=O | 152 to 157 °C |
| COc1ccc(NC(=NC#N)NC(NC(=O)c2cccc(Cl)c2)C(C)(Cl)Cl)cn1 (stereo not given) | 189 to 190 °C |
| O=C(Nc1ccc(Oc2ccnc(N3CCCC(O)C3)n2)c2ccccc12)c1cc(F)cc(N2CCCCC2)c1 (stereo not given) | 93 to 95 °C |
| CN1CCC(C2c3ccccc3C=Cc3ccccc32)CC1 | 127 °C |
| CC(C)(C)NC(=O)C(C#N)C(=O)C1CC1 (stereo not given) | 97 to 98.5 °C |
| CCCOc1ncc(C(C)=O)cc1-c1nc2c(CC)n(C3CN(C(C)C)C3)nc2c(=O)[nH]1 | 163 to 164 °C |
| COc1ccc(CC(=O)N2CCN(C(=S)SC)CC2)c(OC)c1OC | 119 to 120 °C |
| CCOC(=O)[C@@H]1C[C@H]([N+](=O)[O-])[C@@H](C(=O)O)[C@H](OC(CC)CC)[C@@H]1Sc1ccc(C)cc1 | 135 to 136 °C |
| CC1(C)Oc2ccc(S(=O)(=O)C(F)(F)F)cc2[C@@H](N2Cc3c(cccc3[N+](=O)[O-])C2=O)[C@@H]1O (relative stereo) | 292 to 295 °C |
| ONCc1ccc(N2CCC3(CC2)OCCO3)cc1 | 107 to 109 °C |
| COC(=O)c1cc(N(CCO)CCO)c(S(C)(=O)=O)cc1[N+](=O)[O-] | 99 to 100 °C |
| COc1c(N2C[C@@H](C)N[C@@H](C)C2)c(F)cc2c(=O)c(C(=O)O)cn([C@@H]3C[C@@H]3F)c12 | 129 to 131 °C |
| CCCCCCCCOC1CCC(=O)N1 (stereo not given) | 36 to 38 °C |
| CC(C)N1CCOC(COc2cccc3c2CC=C3)C1 (stereo not given) | 107 to 109 °C |
| Cc1nc(N2CCOCC2)nc(C)c1-c1cccc2c1OC[C@H]2Nc1ccc2c(c1)OC[C@H]2CC(=O)O | 168 °C |
| CCCc1c(OCc2ccc(C=CC(=O)O)cc2OC)ccc(C(C)=O)c1O | 144 to 146 °C |
| Cc1nc(CC(N)=O)no1 | 112 to 114 °C |
| COC(=O)C1C=CCN2C(=O)C(CCO)(Cc3ccccc3)C(=O)N12 (stereo not given) | 148 to 149 °C |
| CS(=O)(=O)c1ccc(-c2ccc(N=[N+]=[N-])nc2-c2ccc(F)cc2)cc1 | 229 °C |
| CCc1nc(N)nc(N)c1-c1ccc(NCc2ccccc2)c([N+](=O)[O-])c1 | 253 to 255 °C |
